The test system of one series is human hepatocytes. Put plainly: cell viability (MTS) after CYP induction treatment of human hepatocytes. As to conditions: after CYP1A2 induction treatment. As for the experimental part: Cell Viability Assay: After the CYP induction treatment and enzyme activity assay, the cells were used for a cell viability assay. The viability of cells, expressed as the percentage of MTS absorbance relative to vehicle control, was measured as described above.

The test system of the next series is p53 in HCT116. Briefly: p53 (DO-1) Western blot. It is filed as cell-based, human. Conditions: HCT116 + RG7388 50 nM, 24 hr. As to the method:
(§1) Protein samples were quantified using BCA.
(§2) Western blot: For each cell line, 10 μg of total protein were run on a 4-12% Bis-Tris precast gel. The gel was transferred to a nitrocellulose membrane. The membrane was blocked for 1 hour using the Odyssey TBS blocking solution. Membranes were incubated overnight in p53 (p53, DO-1) and actin (beta-actin) primary antibodies. The next day, blots were washed and incubated in either goat anti-mouse for p53 or goat-anti-rabbit for actin secondaries antibodies. Blots were then washed and imaged using an Odyssey CLx imaging system. Bands were quantified using Image Studio software and normalized to the actin control. The p53 or actin levels were then normalized to the NUGC3 band and graphed using Prism.
(§3) Since p53 protein pools are strongly autoregulated by degradation by the transcriptional target MDM2, pools of p53 accumulate to high levels in cells with mutant p53.

For a further series, the system named is p53 in SJSA1. Briefly: p53 (DO-1) Western blot. It is filed as cell-based, human. Conditions: SJSA1 + RG7388 50 nM, 24 hr. As to the method: as §1, §2, §3
A general note: Immunoblotting shows a protein as a band on a membrane.

The next series deals with T1, OATP1B1 (Homo sapiens, UniProt Q9Y6L6).
T1 sequence (Q9Y6L6 1-691): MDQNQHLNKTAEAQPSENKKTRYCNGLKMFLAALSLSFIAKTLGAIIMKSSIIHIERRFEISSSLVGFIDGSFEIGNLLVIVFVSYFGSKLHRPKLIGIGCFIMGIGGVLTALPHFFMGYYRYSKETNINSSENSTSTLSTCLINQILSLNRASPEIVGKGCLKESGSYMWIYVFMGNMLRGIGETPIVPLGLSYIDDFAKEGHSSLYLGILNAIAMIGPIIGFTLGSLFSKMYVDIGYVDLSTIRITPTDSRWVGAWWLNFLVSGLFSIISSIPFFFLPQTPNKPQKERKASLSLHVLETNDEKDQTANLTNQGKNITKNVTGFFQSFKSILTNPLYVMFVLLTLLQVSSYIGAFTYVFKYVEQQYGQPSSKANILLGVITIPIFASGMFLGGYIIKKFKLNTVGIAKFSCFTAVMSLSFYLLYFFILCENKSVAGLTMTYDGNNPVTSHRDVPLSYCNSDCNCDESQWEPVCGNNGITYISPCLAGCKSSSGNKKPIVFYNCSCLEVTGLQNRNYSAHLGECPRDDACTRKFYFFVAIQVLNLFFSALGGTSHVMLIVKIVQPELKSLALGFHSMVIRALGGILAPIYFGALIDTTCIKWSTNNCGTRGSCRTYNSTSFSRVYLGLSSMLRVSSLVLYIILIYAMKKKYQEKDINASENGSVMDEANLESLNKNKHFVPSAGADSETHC
Briefly: uptake transporter inhibition assessment, transfected HEK293. As to conditions: inhibitor 10 μM.

The next series concerns the target T2, OATP1B3 (Homo sapiens, UniProt Q9NPD5).
T2 sequence (Q9NPD5 1-702): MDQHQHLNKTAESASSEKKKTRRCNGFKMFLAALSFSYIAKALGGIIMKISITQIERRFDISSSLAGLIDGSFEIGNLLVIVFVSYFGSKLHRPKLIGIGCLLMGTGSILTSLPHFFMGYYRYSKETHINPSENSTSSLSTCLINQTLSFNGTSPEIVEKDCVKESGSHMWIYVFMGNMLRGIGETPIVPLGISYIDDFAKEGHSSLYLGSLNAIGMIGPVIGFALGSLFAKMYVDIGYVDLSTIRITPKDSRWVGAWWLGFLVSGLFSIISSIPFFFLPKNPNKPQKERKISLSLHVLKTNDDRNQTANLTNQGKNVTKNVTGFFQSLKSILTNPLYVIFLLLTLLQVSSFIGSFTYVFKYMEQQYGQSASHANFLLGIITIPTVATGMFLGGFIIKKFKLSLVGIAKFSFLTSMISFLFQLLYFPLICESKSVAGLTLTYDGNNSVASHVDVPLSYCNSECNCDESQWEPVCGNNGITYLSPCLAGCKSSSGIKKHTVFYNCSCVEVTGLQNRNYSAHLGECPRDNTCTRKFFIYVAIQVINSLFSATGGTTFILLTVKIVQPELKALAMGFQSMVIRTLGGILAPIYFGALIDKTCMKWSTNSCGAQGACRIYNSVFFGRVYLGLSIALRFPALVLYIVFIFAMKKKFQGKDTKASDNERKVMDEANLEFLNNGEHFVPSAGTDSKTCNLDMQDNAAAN
The description is as above. As to conditions: inhibitor 10 μM.

For series [1], the system named is CYP enzymes in human liver microsomes. Conditions: HLM, probe S-Mephenytoin 25 μM. As to the method:
Pooled HLM were stored at −80° C. until use. […] The reaction was initiated by adding NADPH, followed by incubation at 37° C.
Corrected CLint=Raw CLint−Negative Control CLint; Δ CLint=CLHint(TA+NADPH−Inhibitor)−CLint (TA+NADPH+Inhibitor).

The mark [2] stands for this setting: +NADPH −Inhibitor, Maximum Metabolism.
Setting [3] is: −NADPH −Inhibitor, Negative Control.

Results on 4 compounds are retold here after US20230049952A1, “METHODS AND COMPOUNDS FOR RESTORING MUTANT P53 FUNCTION” (PMV Pharmaceuticals, Inc., priority 2020, published 2023).

Like-named read-outs stand apart in the source and are kept apart here.

On to `COc1ccc2[nH]c([S+]([O-])Cc3ncc(C)c(OC)c3C)nc2c1` (stereo not drawn) [OME], for which the “Formazan Absorbance (n = 3) Mean” value in the series with human hepatocytes (Donor 1, 50 μM) worked out at 0.494; in the series on human hepatocytes (Donor 2, 50 μM), 0.800; in the series with human hepatocytes (Donor 3, 50 μM), 0.433.
For `COc1cc(C(=O)O)ccc1NC(=O)[C@@H]1N[C@@H](CC(C)(C)C)[C@](C#N)(c2ccc(Cl)cc2F)[C@H]1c1cccc(Cl)c1F` [RG7388], the DO1/Actin with p53 in HCT116 was 0.065; in the series on p53 in SJSA1 it was 0.008. In addition, the figures for the DO1 band density in the series with p53 in HCT116 and in the series on p53 in SJSA1 were 1300 and 94.5, respectively. The “normalized DO1/Actin” value in the series with p53 in HCT116 (normalized to NUGC3) is given as 0.524; in the series with p53 in SJSA1 (normalized to NUGC3), 0.068.
In the case of `CO[C@H]1/C=C/O[C@@]2(C)Oc3c(C)c([O-])c4c(O)c(cc(O)c4c3C2=O)NC(=O)/C(C)=C\C=C\[C@H](C)[C@H](O)[C@@H](C)[C@@H](O)[C@@H](C)[C@H](OC(C)=O)[C@@H]1C.[Na+]` [Rifamycin SV], the “Inhibition Potential Classification” value at OATP1B1 and at OATP1B3 was “Positive (Percent inhibition≥50%: Positive)” in each case. Moreover, the “Percent Inhibition” value on OATP1B1 (probe Atorvastatin ([…])) and on OATP1B3 (probe atorvastatin (0.1 μM per TABLE 176)) was 94.8 in each case. The “Influx Rate AVG” value on OATP1B1 (probe Atorvastatin ([…]), OATP1B1-transfected HEK cells) is listed as 1.12 pmol/minute/mg protein; at OATP1B1 (probe Atorvastatin ([…]), Vector Control cells), 0.769 pmol/minute/mg protein; at OATP1B3 (probe atorvastatin (0.1 μM per TABLE 176), OATP1B3-transfected HEK cells), 0.991 pmol/minute/mg protein; on OATP1B3 (probe atorvastatin (0.1 μM per TABLE 176), Vector Control cells) it was 0.769 pmol/minute/mg protein.
With `CC[C@@]1(c2ccccc2)NC(=O)N(C)C1=O` [S-Mephenytoin], in series [1] (setting [2]), the “Formation Rate (4′-OH Mephenytoin)” value came to 39.8 pmol/min/mg protein and the “Measured Metabolite (4′-OH Mephenytoin)” value is 0.398 µM. Also, in series [1] (setting [3]), the “Formation Rate (4′-OH Mephenytoin)” value was found to be 0 pmol/min/mg protein and the “Measured Metabolite (4′-OH Mephenytoin)” value was determined as 0 µM.
